Broadly, the inhibition is how much of the control response was suppressed.

In the assay the target is T1, recombinant human mPGES-1 (Homo sapiens, UniProt O14684).
T1 construct: made in house; host or cells: Rosetta E. coli (microsomal/membrane fraction)
T1 sequence (O14684 1-152): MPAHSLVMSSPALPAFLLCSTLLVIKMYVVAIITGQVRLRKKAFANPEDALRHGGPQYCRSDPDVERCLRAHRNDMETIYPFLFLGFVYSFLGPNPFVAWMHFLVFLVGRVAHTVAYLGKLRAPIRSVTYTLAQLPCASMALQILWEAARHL
The assay is described as follows: mPGES-1 inhibition test (microsomes, PGH2 substrate, HTRF detection of PGE2). The note with it: inhibition of mPGES-1 at 10 μM. The assay is classed as biochemical. The procedure, abridged: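 E. coli microsomal enzyme, 0.1 M KPi pH 7.4 + 2.5 mM GSH; cpd (DMSO) 25 min RT; PGH2 1 min; acidic FeCl2 stop. Dilute 750-fold, HTRF (d2/Eu-cryptate anti-PGE2, overnight 4 °C), 665/620 ratio vs PGE2 standard curve.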
(In general: Time-resolved FRET reads energy transfer from a long-lived donor to a nearby acceptor.)
With `COc1cc2[nH]c(Nc3c(Cl)cccc3Cl)nc2cc1C(=O)NCc1ncccc1C` [Example 577, 2-(2,6-Dichlorophenylamino)-6-methoxy-N-((3-methylpyridin-2-yl)-methyl)-1H-benzimidazole-5-carboxamide], the inhibition at 10 µM amounted to 100%. In the case of `CCc1ccc(C)nc1NC(=O)c1ccc2[nH]c(Nc3c(Cl)cccc3Cl)nc2c1` [Example 558, 2-(2,6-Dichlorophenylamino)-N-(3-ethyl-6-methylpyridin-2-yl)-1H-benzimidazole-5-carboxamide], the inhibition at 10 µM stood at 77%. As for `O=C(NCc1cccc(C(F)(F)F)n1)c1ccc2[nH]c(Nc3c(Cl)cccc3Cl)nc2c1` [Example 223, 2-(2,6-Dichloro-phenylamino)-1H-benzimidazole-5-carboxylic acid (6-trifluoromethyl-pyridin-2-ylmethyl)-amide], the inhibition at 10 µM is 87%. `COc1cc2c(cc1C(=O)N[C@H]1CC[C@H](C(F)(F)F)CC1)nc(Nc1c(Cl)cccc1Cl)n2C` [Example 369, 2-(2,6-Dichlorophenylamino)-6-methoxy-1-methyl-N-((1r,4r)-4-trifluoromethyl-cyclohexyl)-1H-benzimidazole-5-carboxamide]: the inhibition at 10 µM turned out to be 100%.

`Cc1cnc(NC(=O)c2cc3nc(Nc4c(Cl)cccc4Cl)n(C)c3cc2F)cc1Cl` [Example 372, N-(4-Chloro-5-methylpyridin-2yl)-2-(2,6-dichlorophenylamino)-6-fluoro-1-methyl-1H-benzimidazole-5-carboxamide]: the inhibition at 10 µM was 98%. The value for `Cn1c(Nc2ccc(Cl)cc2C(F)(F)F)nc2cc(C(=O)Nc3ccc(Br)cc3)ccc21` [Example 433, N-(4-Bromophenyl)-2-(4-chloro-2-trifluoromethyl-phenylamino)-1-methyl-1H-benzimidazole-5-carboxamide] was 99%; that for `O=C(Nc1ccc(Br)cc1)c1ccc2[nH]c(Nc3c(Cl)cccc3Cl)nc2c1` [Example 66, 2-(2,6-Dichloro-phenylamino)-1H-benzimidazole-5-carboxylic acid (4-bromo-phenyl)-amide] was 100%. As for `O=C(Nc1ccc(Cl)c(F)c1)c1cc2nc(Nc3c(Cl)cccc3Cl)[nH]c2cc1F` [Example 124, 2-(2,6-Dichloro-phenylamino)-6-fluoro-1H-benzimidazol-5-carboxylic acid (4-chloro-3-fluoro-phenyl)-amide], the figure is 98%; as for `Cn1c(Nc2c(Cl)ccc(Cl)c2F)nc2cc(C(=O)NC3CCC4(CC3)CC4)c(F)cc21` [Example 606, 2-(3,6-Dichloro-2-fluoro-phenylamino)-6-fluoro-N-(spiro[2.5]oct-6-yl)-1-methyl-1H-benzimidazole-5-carboxamide], 94%. As for `O=C(NC1Cc2ccccc2C1)c1cc2nc(Nc3c(Cl)cccc3Cl)[nH]c2cc1F` [Example 125, 2-(2,6-Dichloro-phenylamino)-6-fluoro-1H-benzimidazol-5-carboxylic acid indan-2-yl-amide], the figure is 100%. With `O=C(NCCc1ccncc1)c1ccc2[nH]c(Nc3c(Cl)cccc3Cl)nc2c1` [Example 233, 2-(2,6-Dichloro-phenylamino)-1H-benzimidazole-5-carboxylic acid (2-pyridin-4-yl-ethyl)-amide], the inhibition at 10 µM worked out at 67%.

In the case of `Cc1cccnc1CNC(=O)c1cc2nc(Nc3c(Cl)cccc3Cl)n(C)c2cc1F` [Example 510, 2-(2,6-Dichlorophenylamino)-6-fluoro-1-methyl-N-((3-methylpyridin-2-yl)methyl)-1H-benzimidazole-5-carboxamide], the inhibition at 10 µM is 99%. In the case of `Cn1c(Nc2ccc(F)cc2Cl)nc2cc(C(=O)Nc3ccc(Br)cc3)ccc21` [Example 456, N-(4-Bromophenyl)-2-(2-chloro-4-fluorophenylamino)-1-methyl-1H-benzimidazole-5-carboxamide], the inhibition at 10 µM turned out to be 100%.

The record behind these values is patent publication US8916599B2, “1H-benz imidazole-5-carboxamides as anti-inflammatory agents” (Orexo AB, priority 2008, dated 2014).
